Test system: primary rat mixed cortical cells
Test: In vitro myelination assay (MBP positive myelin strands, fold myelin pixels above background)
Format: cell-based
Conditions: Rattus norvegicus, relative to baseline of no added compound; for fold induction at 1 µM: 1.0 μM compound, read-out: Fold myelin pixels above background, 1.0 μM; for fold induction at 10 µM: 10.0 μM compound, read-out: Fold myelin pixels above background, 10.0 μM
Outline: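 Read-out is total MBP-positive myelin strand pixels per well, detected by custom ridge-tracing software and reported as fold over untreated baseline. Primary P1 rat mixed cortical cells received compound (1.0 or 10.0 μM) for 14 days, with medium half-replaced on days 6 and 10. Standard deviation was taken across all replicates.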

SMILES | fold induction at 1 µM | fold induction at 10 µM
O=c1cc(-n2cnc(Nc3cc(C(F)F)cc(N4CCN(C5COC5)CC4)c3)n2)cc[nH]1 [Compound 163, 4-[3-[3-(difluoromethyl)-5-[4-(oxetan-3-yl)piperazin-1-yl]anilino]-1,2,4-triazol-1-yl]-1H-pyridin-2-one] | 100 to 1000 | ≤ 1
COC1CCN(c2cc(C)cc(Nc3ncn(-c4cc(F)cc(F)c4)n3)c2)C1 (stereo not shown) [Compound 164, 1-(3,5-difluorophenyl)-N-[3-(3-methoxypyrrolidin-1-yl)-5-methyl-phenyl]-1,2,4-triazol-3-amine] | 1 to 10 | 1 to 10
c1ccc(-n2cnc(Nc3cc(C4CCOC4)cc(N4CCOCC4)c3)n2)cc1 (stereo not shown) [Compound 165, N-(3-morpholino-5-tetrahydrofuran-3-yl-phenyl)-1-phenyl-1,2,4-triazol-3-amine] | 100 to 1000 | 10 to 100
Fc1cc(Nc2ncn(-c3cccc(F)c3)n2)cc(N2CCCOCC2)c1 [Compound 166, N-[3-fluoro-5-(1,4-oxazepan-4-yl)phenyl]-1-(3-fluorophenyl)-1,2,4-triazol-3-amine] | 100 to 1000 | 10 to 100
Fc1ccc(-n2cnc(Nc3cc(F)cc(N4CCCC4)c3)n2)cc1 [Compound 167, 1-(4-fluorophenyl)-N-(3-fluoro-5-pyrrolidin-1-yl-phenyl)-1,2,4-triazol-3-amine] | ≤ 1 | 100 to 1000
Brc1cc(Nc2ncn(-c3ccccc3)n2)cc(N2CCOCC2)c1 [Compound 168, N-(3-bromo-5-morpholino-phenyl)-1-phenyl-1,2,4-triazol-3-amine] | 1000 to 10000 | 1000 to 10000
Cc1cc(Nc2ncn(-c3ccc(F)c(F)c3)n2)cc(N2CCC(C3COC3)CC2)c1 [Compound 169, 1-(3,4-difluorophenyl)-N-[3-methyl-5-[4-(oxetan-3-yl)-1-piperidyl]phenyl]-1,2,4-triazol-3-amine] | 10 to 100 | 1 to 10
Fc1cc(F)cc(-n2cnc(Nc3cc(C4CC4)nc(N4CCCC4)c3)n2)c1 [Compound 170, 2-cyclopropyl-N-[1-(3,5-difluorophenyl)-1,2,4-triazol-3-yl]-6-pyrrolidin-1-yl-pyridin-4-amine] | 10 to 100 | 100 to 1000
Cc1cc(Nc2ncn(-c3cc(F)cc(F)c3)n2)cc(N2CC3(COC3)C2)c1 [Compound 171, 1-(3,5-difluorophenyl)-N-[3-methyl-5-(6-oxa-2-azaspiro[3.3]heptan-2-yl)phenyl]-1,2,4-triazol-3-amine] | 10 to 100 | 100 to 1000
Cc1cc(Nc2ncn(-c3ccccc3)n2)cc(N2CCN(C3CCCOC3)CC2)c1 (stereo not shown) [Compound 172, N-[3-methyl-5-(4-tetrahydropyran-3-ylpiperazin-1-yl)phenyl]-1-phenyl-1,2,4-triazol-3-amine] | 1000 to 10000 | 1 to 10
CCc1cc(Nc2ncn(-c3cc(F)cc(F)c3)n2)cc(N2CC(N3CCOCC3)C2)c1 [Compound 173, 1-(3,5-difluorophenyl)-N-[3-ethyl-5-(3-morpholinoazetidin-1-yl)phenyl]-1,2,4-triazol-3-amine] | 100 to 1000 | 10 to 100
Cc1cc(Nc2ncn(-c3ccncn3)n2)cc(N2CCN(C3COC3)CC2)c1 [Compound 174, N-[3-methyl-5-[4-(oxetan-3-yl)piperazin-1-yl]phenyl]-1-pyrimidin-4-yl-1,2,4-triazol-3-amine] | 1 to 10 | 10 to 100
Fc1cccc(-n2cnc(Nc3cc(N4CCN(C5COC5)CC4)cc(C(F)(F)F)c3)n2)c1 [Compound 175, 1-(3-fluorophenyl)-N-[3-[4-(oxetan-3-yl)piperazin-1-yl]-5-(trifluoromethyl)phenyl]-1,2,4-triazol-3-amine] | 1000 to 10000 | ≤ 1
Cc1cc(Nc2ncn(-c3ccncn3)n2)cc(N2CCN(C3CC3)CC2)c1 [Compound 176, N-[3-(4-cyclopropylpiperazin-1-yl)-5-methyl-phenyl]-1-pyrimidin-4-yl-1,2,4-triazol-3-amine] | 100 to 1000 | 100 to 1000
Fc1cc(Nc2ncn(-c3ccc(F)cc3F)n2)cc(NC2CNC2)c1 [Compound 177, N1-(azetidin-3-yl)-N3-[1-(2,4-difluorophenyl)-1,2,4-triazol-3-yl]-5-fluoro-benzene-1,3-diamine] | ≤ 1 | ≤ 1
Cc1cc(Nc2ncn(-c3cc(F)cc(F)c3)n2)cc(O[C@@H]2CCN(C3COC3)C2)c1 [Compound 178, 1-(3,5-difluorophenyl)-N-[3-methyl-5-[(3R)-1-(oxetan-3-yl)pyrrolidin-3-yl]oxy-phenyl]-1,2,4-triazol-3-amine] | 1000 to 10000 | 1 to 10

SMILES | fold induction at 1 µM | fold induction at 10 µM
Cc1cc(Nc2ncn(-c3ccccc3)n2)cc(N2CCCN(C)CC2)c1 [Compound 179, N-[3-methyl-5-(4-methyl-1,4-diazepan-1-yl)phenyl]-1-phenyl-1,2,4-triazol-3-amine] | 100 to 1000 | ≤ 1
Cc1cc(Nc2ncn(-c3ccncn3)n2)cc(C2CCCN(C3COC3)C2)c1 (stereo not shown) [Compound 180, N-[3-methyl-5-[1-(oxetan-3-yl)-3-piperidyl]phenyl]-1-pyrimidin-4-yl-1,2,4-triazol-3-amine] | 100 to 1000 | ≤ 1
Fc1cc(Nc2ncn(-c3cccc(C(F)(F)F)c3)n2)cc(N2CCOCC2)c1 [Compound 181, N-(3-fluoro-5-morpholino-phenyl)-1-[3-(trifluoromethyl)phenyl]-1,2,4-triazol-3-amine] | ≤ 1 | 100 to 1000
COCCCN1CCC(Nc2cc(C)cc(Nc3ncn(-c4ccccc4)n3)c2)CC1 [Compound 182, N1-[1-(3-methoxypropyl)-4-piperidyl]-5-methyl-N3-(1-phenyl-1,2,4-triazol-3-yl)benzene-1,3-diamine] | 1000 to 10000 | 1 to 10
COc1cc(Nc2ncn(-c3ccc(F)c(F)c3)n2)cc(N2CCN(C3COC3)CC2)c1 [Compound 183, 1-(3,4-difluorophenyl)-N-[3-methoxy-5-[4-(oxetan-3-yl)piperazin-1-yl]phenyl]-1,2,4-triazol-3-amine] | 100 to 1000 | 10 to 100
Fc1cc(-n2cnc(Nc3cc(C4CC4)cc(N4CCN(C5COC5)CC4)c3)n2)ccn1 [Compound 184, N-[3-cyclopropyl-5-[4-(oxetan-3-yl)piperazin-1-yl]phenyl]-1-(2-fluoro-4-pyridyl)-1,2,4-triazol-3-amine] | 10 to 100 | 1 to 10
Cc1cc(Nc2ncn(-c3cc(F)cc(F)c3)n2)cc(N2C[C@H]3C[C@@H]2CN3C2COC2)c1 [Compound 185, 1-(3,5-difluorophenyl)-N-[3-methyl-5-[(1R,4R)-2-(oxetan-3-yl)-2,5-diazabicyclo[2.2.1]heptan-5-yl]phenyl]-1,2,4-triazol-3-amine] | 100 to 1000 | 1 to 10
Cc1cc(Nc2ncn(-c3ccc(C#N)cc3)n2)cc(N2CCCC2)c1 [Compound 186, 4-[3-(3-methyl-5-pyrrolidin-1-yl-anilino)-1,2,4-triazol-1-yl]benzonitrile] | 10 to 100 | 10 to 100
CCN(C)Cc1cc(F)cc(-n2cnc(Nc3cc(C)cc(N4CCN(C5COC5)CC4)c3)n2)c1 [Compound 187, 1-[3-[[ethyl(methyl)amino]methyl]-5-fluoro-phenyl]-N-[3-methyl-5-[4-(oxetan-3-yl)piperazin-1-yl]phenyl]-1,2,4-triazol-3-amine] | 100 to 1000 | ≤ 1
Cc1cc(Nc2ncn(-c3cccc(F)c3)n2)cc(NC2CCN(C3COC3)C2)c1 (stereo not shown) [Compound 188, N3-[1-(3-fluorophenyl)-1,2,4-triazol-3-yl]-5-methyl-N1-[1-(oxetan-3-yl)pyrrolidin-3-yl]benzene-1,3-diamine] | 100 to 1000 | ≤ 1
Fc1cc(-n2cnc(Nc3cc(C(F)F)cc(N4CCN(C5COC5)CC4)c3)n2)ccn1 [Compound 189, N-[3-(difluoromethyl)-5-[4-(oxetan-3-yl)piperazin-1-yl]phenyl]-1-(2-fluoro-4-pyridyl)-1,2,4-triazol-3-amine] | 100 to 1000 | ≤ 1
Cc1cc(Nc2ncn(-c3cccc(C(F)(F)F)c3)n2)cc(N2CCCC2)c1 [Compound 190, N-(3-methyl-5-pyrrolidin-1-yl-phenyl)-1-[3-(trifluoromethyl)phenyl]-1,2,4-triazol-3-amine] | 1 to 10 | ≤ 1
Cc1cc(Nc2ncn(-c3ccc(C(F)(F)F)cc3)n2)cc(N2CCN(C3COC3)CC2)c1 [Compound 191] | ≤ 1 | 1 to 10
Cc1cc(Nc2ncn(-c3cccc(F)c3)n2)cc(NC2CCN(C3COC3)CC2)c1 [Compound 192, N3-[1-(3-fluorophenyl)-1,2,4-triazol-3-yl]-5-methyl-N1-[1-(oxetan-3-yl)-4-piperidyl]benzene-1,3-diamine] | 100 to 1000 | ≤ 1
Cc1cc(Nc2ncn(-c3cc(F)cc(F)c3)n2)cc(C2(F)CCN(C3COC3)C2)c1 (stereo not shown) [Compound 193, 1-(3,5-difluorophenyl)-N-[3-[3-fluoro-1-(oxetan-3-yl)pyrrolidin-3-yl]-5-methyl-phenyl]-1,2,4-triazol-3-amine] | 100 to 1000 | 100 to 1000
CC(=O)N1CCC(c2cc(C)cc(Nc3ncn(-c4ccccc4)n3)c2)CC1 [Compound 194, 1-[4-[3-methyl-5-[(1-phenyl-1,2,4-triazol-3-yl)amino]phenyl]-1-piperidyl]ethanone] | 1000 to 10000 | ≤ 1

From patent US10766869B2, “Triazoles for the treatment of demyelinating dieases” (Vertex Pharmaceuticals Incorporated, priority 2015, dated 2020)
